Test results taken from patent publication US20250134895A1, “METHODS AND COMPOSITIONS FOR TREATING ALPHA-SYNUCLEIN-MEDIATED NEURODEGENERATION” (UNIVERSITY HEALTH NETWORK, priority 2021, published 2025).

Tests used:
[1] = biological target: T1, α-synuclein oligomers (Homo sapiens, UniProt P37840); assay: Venus YFP protein-fragment complementation assay in rat primary cortical neurons; type: cell-based; conditions: 72 hours; for YFP fluorescence compared with vehicle control: 10 μM
[2] = biological target: T1, α-synuclein oligomers; assay: Gaussia luciferase protein-fragment complementation cell assay of α-synuclein oligomers in H4 neuroglioma cells; type: cell-based; set-up: full-length human α-synuclein fused to the N-terminal fragment of Gaussia princeps luciferase (syn-luc1); full-length human α-synuclein fused to the C-terminal fragment of Gaussia princeps luciferase (syn-luc2); expressed in transfected cells; host or cells: H4 neuroglioma cells (ATCC, HTB-148), transient co-transfection; conditions: for α-syn oligomers as measured by luciferase activity / decrease in luciferase activity compared with vehicle alone: 1 μM or 10 μM; for α-syn oligomers as measured by luciferase activity: Example 9; for decrease in luciferase activity compared with vehicle alone: 24 hours of treatment
Procedure: (§1) For controls in this assay, vehicle (i.e., DMSO), rapamycin, and bafilomycin A were used. Rapamycin, or sirolimus, is a small molecule that activates autophagy by inhibiting mTOR (mammalian target of rapamycin). […] To test this possibility, cells expressing α-synuclein were treated with each of the compounds and a cell permeable, resazurin-based assay was used to test for cell viability.
(§2) H4 neuroglioma cells (ATCC, HTB-148) were maintained in Dulbecco's Modified Eagle Medium plus high glucose, L-glutamine, and sodium pyruvate (ThermoFisher, 11995-065) with 10% heat-inactivated fetal bovine serum (ThermoFisher, 16140071) and 1% antibiotic-antimycotic cocktail (ThermoFisher, 15240062) at 37° C. and 5% CO2. DNA expression constructs encoding for full-length human α-synuclein fused to the N-terminal fragment of Gaussia princeps luciferase (syn-luc1), full-length human α-synuclein fused to the C-terminal fragment of Gaussia princeps luciferase (syn-luc2), and full-length Gaussia princeps luciferase were kindly provided by Dr. Pamela McLean, Mayo Clinic Jacksonville.^33 Cells were transiently co-transfected with syn-luc1 and syn-luc2 or transfected with luciferase alone using Superfect transfection reagent (Qiagen, 301305) according to the manufacturer's instructions. Twenty-four hours after transfection, cells were plated on a 96-well microplate at 60,000 cells per well. Twenty-four hours after plating, cells were treated with drugs or vehicle control. Following 24 hours of treatment, cells were washed 1 time with PBS and bioluminescence was measured using an automated CLARIOstar plate reader (Mandel, 430-0505). Cell permeable, native coelenterazine was used as the Gaussia luciferase substrate. Lyophilized coelenterazine (Nanolight, 303-500) was reconstituted in NanoFuel Solvent (Nanolight, 399-1), then diluted in PBS to 16.6 μg/mL, and dispensed per well to a final concentration of 20 μM). The bioluminescent signal generated by the luciferase enzyme was assessed at 470 nm over 5 seconds. Raw luminescence units were normalized to the DMSO vehicle control of each 96-well microplate. To assess cell viability, H4 neuroglioma cells were prepared and treated as described above and, 1 hour prior to viability analysis, cells were treated with PrestoBlue viability reagent (ThermoFisher, A13261) according to the manufacturer's instructions. Fluorescence was automatically measured using a CLARIOstar plate reader (Mandel, 430-0505) and then normalized to the fluorescence measure of the DMSO vehicle control.
We used a bioluminescent protein-fragment complementation assay in which human H4 neuroglioma cells co-express human α-synuclein tagged with the N- or C-terminal half of Gaussia princeps luciferase (FIG. 12). Reconstitution of a complete and active luciferase molecule from the fragments occurs upon α-synuclein oligomerization, and so luminescence provides an indirect measure of α-synuclein oligomer levels. H4 neuroglioma cells were co-transfected with α-syn luciferase fragments, and constructs were plated into a 96-well plate and treated with either 1 μM or 10 μM of each of the 19 drug compounds.

[3] = tested on: full-length Gaussia princeps luciferase; assay: Activity of full-length Gaussia luciferase alone in H4 cells; type: cell-based
Procedure: as §1, §2

[4] = tested on: transgenic A30P α-synuclein C. elegans; assay: Coiler score and locomotion of C. elegans expressing A30P α-synuclein in dopaminergic neurons; type: in vivo, Caenorhabditis elegans; conditions: for reduction in coiling compared with vehicle alone (decrease): 100 μM of drug, 3 days on drug plates
Procedure: Using high-resolution, multi-worm tracking with custom image processing, methods were developed for semi-automated and blinded scoring of circularity for a population of simultaneously recorded animals (n=10 per recording). A coiler score was determined for the population tested by first calculating the circularity value for each animal in each frame of video and then calculating the proportion of circularity values >0.6. […] The coiler phenotype is an abnormal motor behaviour previously reported for several unc C. elegans strains with mutations affecting neuronal function.
Animals were synchronized by isolating eggs using alkaline hypochlorite treatment and hatching overnight. Larvae were plated onto NGM agar plates with OP50 and grown for 4 days before recording locomotion. For individual C. elegans recordings, a single adult animal was randomly picked, washed for 1 to 2 minutes in M9 buffer, and then transferred to a fresh NGM plate without food for imaging. Video images were acquired (2 frames per second) for up to 6 minutes using a sCMOS camera (pco.edge, PCO) mounted on a stereomicroscope (Olympus MVX10 MacroView) controlled using the μManager software.^55 A total of 40 individual animals were imaged for each strain. For C. elegans population recordings, ten adult animals were randomly removed using an eyelash pick, washed for 1 minute in M9 buffer, and then transferred to a fresh NGM plate without food, with a ring of copper sulfate solution (150 mM) around the area of recording (a chemorepellent to keep the animals in the recording frame). Exploratory locomotion was recorded using a CCD camera (GX1920, Allied Vision) which was attached to a dissecting stereomicroscope (Leica M165C, 1.0× PlanApo lens). A Labview program captured video (2 frames per second) at 1936×1456 resolution. Using ImageJ, the displacement, perimeter, and area of each animal was calculated, from which a circularity value was computed using the following formula: circularity=4π(A/P^2), where A is the area of the animal's body and P is the perimeter of the animal's body (both expressed in arbitrary pixel units). […] Using MATLAB (Mathworks), various behavioural metrics including the coiler score were calculated, which is the percentage of frames with a circularity value >0.6. Speed was automatically computed from the ImageJ based WrmTrk plugin as the distance travelled by each animal (in pixels) over the amount of time that it was tracked (in seconds).56 Average speed was determined by calculating the weighted average of each tracked animal's speed within a single population of animals. On the day of the recording for dopamine or raclopride treatment, adult animals were washed for 1 minute in M9 buffer, treated in a solution containing either drug for 1 minute, and then placed onto fresh NGM plates without food, with a copper sulfate solution ring around the area of recording. […] Drug plates were prepared by adding each drug to LB medium with OP50 before spreading onto fresh NGM plates. The solvent used to dissolve each drug was used as vehicle control for the drug treatment experiments (M9 buffer for dopamine, distilled water for raclopride, DMSO for all other drugs).
After 72 hours of drug treatment, animals were randomly picked, washed, and recorded. A total of ten worms were recorded per population, and twelve populations were recorded for each of the four treatment groups. Locomotion was recorded for each population over a total of 1800 frames over three minutes. The animal's movement speed, area, and perimeter were automatically analyzed as previously described. Coiler score was calculated automatically using a ratio of the animal's area to perimeter, where a higher coiler score would represent a greater degree of α-synuclein-induced dopaminergic neuron dysfunction in vivo.

[5] = tested on: H4 neuroglioma cells; conditions: for reduced cell survival: human, 24 h
Procedure: as §1, §2

[6] = tested on: control GFP C. elegans; assay: Coiler score and locomotion of control GFP C. elegans; type: in vivo, Caenorhabditis elegans; conditions: 1 mM, animals not expressing α-synuclein
Procedure: Animals were synchronized by isolating eggs using alkaline hypochlorite treatment and hatching overnight. Larvae were plated onto NGM agar plates with OP50 and grown for 4 days before recording locomotion. For individual C. elegans recordings, a single adult animal was randomly picked, washed for 1 to 2 minutes in M9 buffer, and then transferred to a fresh NGM plate without food for imaging. Video images were acquired (2 frames per second) for up to 6 minutes using a sCMOS camera (pco.edge, PCO) mounted on a stereomicroscope (Olympus MVX10 MacroView) controlled using the μManager software.^55 A total of 40 individual animals were imaged for each strain. For C. elegans population recordings, ten adult animals were randomly removed using an eyelash pick, washed for 1 minute in M9 buffer, and then transferred to a fresh NGM plate without food, with a ring of copper sulfate solution (150 mM) around the area of recording (a chemorepellent to keep the animals in the recording frame). Exploratory locomotion was recorded using a CCD camera (GX1920, Allied Vision) which was attached to a dissecting stereomicroscope (Leica M165C, 1.0× PlanApo lens). […] Using ImageJ, the displacement, perimeter, and area of each animal was calculated, from which a circularity value was computed using the following formula: circularity=4π(A/P^2), where A is the area of the animal's body and P is the perimeter of the animal's body (both expressed in arbitrary pixel units). […] Using MATLAB (Mathworks), various behavioural metrics including the coiler score were calculated, which is the percentage of frames with a circularity value >0.6. Speed was automatically computed from the ImageJ based WrmTrk plugin as the distance travelled by each animal (in pixels) over the amount of time that it was tracked (in seconds).56 Average speed was determined by calculating the weighted average of each tracked animal's speed within a single population of animals. […]
C. elegans were grown and maintained as previously described (Examples 1-6). […] After 72 hours of drug treatment, animals were randomly picked, washed, and recorded. […]

SMILES: CCCC(=O)Nc1ccc(OCC(O)CNC(C)C)c(C(C)=O)c1 (centres unmarked) [Acebutolol]
- YFP fluorescence compared with vehicle control [1]: No significant differences
- α-syn oligomers as measured by luciferase activity [2]: significant decrease
- changes in the activity of full-length Gaussia luciferase alone ([3]; 10 μM, FIG. 14): No statistically significant changes

SMILES: CC(=O)Nc1ccc(O)cc1 [Acetaminophen]
- decrease in luciferase activity compared with vehicle alone [2]: 14%
- reduction in coiling compared with vehicle alone (decrease) [4]: 32%
- changes in the activity of full-length Gaussia luciferase alone ([3]; Example 5, FIG. 5c): No statistically significant changes
- changes in viability [5]: No statistically significant changes

SMILES: CO/C1=C\C(C)=C\[C@@H](C)[C@@H](O)[C@@H](C)C/C(C)=C/C=C/[C@H](OC)[C@@H]([C@@H](C)[C@@H](O)[C@H](C)[C@@]2(O)C[C@@H](O)[C@H](C)[C@@H](C(C)C)O2)OC1=O [Bafilomycin A1, bafilomycin A1]
- change in α-synuclein oligomer levels (active controls) ([2]; rapamycin 2 μM, bafilomycin A1 50 nM): increase

SMILES: CN(C)CCCOc1nn(Cc2ccccc2)c2ccccc12 [Benzydamine]
- α-syn oligomers as measured by luciferase activity [2]: significant decrease

SMILES: Cn1c(=O)c2c(ncn2C)n(C)c1=O [Caffeine]
- decrease in luciferase activity compared with vehicle alone [2]: 16%
- reduction in coiling compared with vehicle alone (decrease) [4]: 37%
- changes in the activity of full-length Gaussia luciferase alone ([3]; Example 5, FIG. 5c): No statistically significant changes

SMILES: Oc1c(I)cc(Cl)c2cccnc12 [Clioquinol]
- α-syn oligomers as measured by luciferase activity [2]: significant decrease

SMILES: NCCc1ccc(O)c(O)c1 [Dopamine, dopamine]
- coiling with exogenous dopamine ([4]; increasing concentrations, 1 minute treatment): decreased with treatment in a dose-dependent manner

SMILES: COc1cc([C@@H]2c3cc4c(cc3[C@@H](O[C@@H]3O[C@@H]5CO[C@@H](C)O[C@H]5[C@H](O)[C@H]3O)[C@H]3COC(=O)[C@H]23)OCO4)cc(OC)c1O [Etoposide]
- decrease in luciferase activity compared with vehicle alone [2]: 30%
- reduced cell survival [5]: > 15%

SMILES: Nc1ccn([C@@H]2CS[C@H](CO)O2)c(=O)n1 [Lamivudine]
- YFP fluorescence compared with vehicle control [1]: No significant differences
- α-syn oligomers as measured by luciferase activity [2]: significant decrease
- changes in the activity of full-length Gaussia luciferase alone ([3]; 10 μM, FIG. 14): No statistically significant changes

SMILES: Sc1ncnc2nc[nH]c12 [Mercaptopurine]
- decrease in luciferase activity compared with vehicle alone [2]: 17%
- effect on coiling / coiler score ([4]; 100 μM, 72 hr, vs DMSO vehicle): no effect
- changes in the activity of full-length Gaussia luciferase alone ([3]; Example 5, FIG. 5c): No statistically significant changes
- changes in viability [5]: No statistically significant changes

SMILES: NC(=O)C[S+]([O-])C(c1ccccc1)c1ccccc1 (centres unmarked) [Modafinil]
- α-syn oligomers as measured by luciferase activity [2]: significant decrease
- reduced cell viability (decrease) ([5]; 1-20 μM, Example 9): 32%
- concentration with significant loss in cell viability ([5]; drugs 1-20 μM, FIG. 13): < 5 µM

SMILES: CN1C(C(=O)Nc2ccccn2)=C(O)c2ccccc2S1(=O)=O [Piroxicam]
- decrease in luciferase activity compared with vehicle alone [2]: 19%
- reduced cell survival [5]: > 15%

SMILES: CCN1CCC[C@H]1CNC(=O)c1c(O)c(Cl)cc(Cl)c1OC [Raclopride, raclopride]
- coiling after D2 receptor blockade [6]: recapitulated the coiling behaviour

SMILES: CO[C@H]1C[C@@H]2CC[C@@H](C)[C@@](O)(O2)C(=O)C(=O)N2CCCC[C@H]2C(=O)O[C@H]([C@H](C)C[C@@H]2CC[C@@H](O)[C@H](OC)C2)CC(=O)[C@H](C)/C=C(\C)[C@@H](O)[C@@H](OC)C(=O)[C@H](C)C[C@H](C)/C=C/C=C/C=C/1C [Rapamycin]
- decrease in fluorescence compared with vehicle alone ([1]; losartan 100 μM, rapamycin 50 nM, rifabutin 20 μM): 36%
- reduction in coiling compared with vehicle alone (decrease) [4]: 30%
- changes in viability [5]: No statistically significant changes

SMILES: Cn1c(=O)c2[nH]cnc2n(C)c1=O [Theophylline]
- decrease in luciferase activity compared with vehicle alone [2]: 8%

SMILES: CC[C@]1(O)C[C@H]2CN(CCc3c([nH]c4ccccc34)[C@@](C(=O)OC)(c3cc4c(cc3OC)N(C=O)[C@H]3[C@@](O)(C(=O)OC)[C@H](OC(C)=O)[C@]5(CC)C=CCN6CC[C@]43[C@@H]65)C2)C1 [Vincristine]
- decrease in luciferase activity compared with vehicle alone [2]: 33%
- reduced cell survival [5]: > 15%
